pIC50: −log10 of the molar value.
Molecular target: T1, JAK3 (Homo sapiens, UniProt P52333)
T1 construct: purchased Reaction Biology Corporation
T1 sequence (P52333 1-1124): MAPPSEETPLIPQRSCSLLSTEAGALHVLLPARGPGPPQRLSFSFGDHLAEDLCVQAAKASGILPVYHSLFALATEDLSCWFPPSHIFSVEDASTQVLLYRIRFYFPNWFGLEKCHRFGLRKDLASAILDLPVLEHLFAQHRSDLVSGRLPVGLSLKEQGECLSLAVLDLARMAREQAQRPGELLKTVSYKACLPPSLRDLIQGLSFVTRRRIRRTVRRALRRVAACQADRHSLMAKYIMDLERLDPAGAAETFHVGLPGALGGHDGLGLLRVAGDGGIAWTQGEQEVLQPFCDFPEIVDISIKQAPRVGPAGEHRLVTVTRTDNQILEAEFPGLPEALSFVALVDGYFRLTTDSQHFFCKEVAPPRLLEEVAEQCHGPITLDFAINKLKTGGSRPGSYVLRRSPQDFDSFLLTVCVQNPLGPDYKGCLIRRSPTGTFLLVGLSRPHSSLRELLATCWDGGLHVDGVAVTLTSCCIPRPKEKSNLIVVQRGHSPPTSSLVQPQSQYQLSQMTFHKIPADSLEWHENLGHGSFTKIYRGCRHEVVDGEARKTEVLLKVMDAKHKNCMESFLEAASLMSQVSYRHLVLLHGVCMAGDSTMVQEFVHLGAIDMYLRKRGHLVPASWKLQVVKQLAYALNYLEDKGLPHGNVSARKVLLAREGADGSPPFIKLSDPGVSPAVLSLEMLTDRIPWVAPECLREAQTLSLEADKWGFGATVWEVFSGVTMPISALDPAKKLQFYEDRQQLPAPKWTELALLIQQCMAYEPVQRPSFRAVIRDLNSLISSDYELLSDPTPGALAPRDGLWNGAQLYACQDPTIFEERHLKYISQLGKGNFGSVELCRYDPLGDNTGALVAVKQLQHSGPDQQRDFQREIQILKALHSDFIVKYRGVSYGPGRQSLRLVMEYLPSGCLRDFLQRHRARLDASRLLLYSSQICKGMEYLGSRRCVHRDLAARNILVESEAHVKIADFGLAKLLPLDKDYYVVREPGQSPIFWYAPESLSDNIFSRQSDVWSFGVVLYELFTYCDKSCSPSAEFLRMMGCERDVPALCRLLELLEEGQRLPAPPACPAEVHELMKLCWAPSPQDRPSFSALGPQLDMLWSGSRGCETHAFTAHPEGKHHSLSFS
Assay: JAK3 ELISA assay
Format: biochemical
Conditions: Determined in a JAK3 ELISA assay

- pIC50: < 5.00
Compound: C=CC(=O)Nc1cccc(-c2c[nH]c3ncc(C(=O)NC4CCCC4)cc23)c1 [Compound 11a, 3-(3-acrylamidophenyl)-N-cyclopentyl-1H-pyrrolo[2,3-b]pyridine-5-carboxamide]
